# Measurements as given in article PMC5027092, “Specific histamine binding activity of a new lipocalin from Hyalomma asiaticum (Ixodidae) and therapeutic effects on allergic asthma in mice” (Parasites & Vectors, 2016).
# Biological target: T1, Ha24 (rHa24-GST) (Hyalomma asiaticum, UniProt A0A1W5TAU9)
# T1 construct: precursor 227 aa with 26-residue signal peptide, mature 201 aa
# T1 sequence (A0A1W5TAU9 27-227): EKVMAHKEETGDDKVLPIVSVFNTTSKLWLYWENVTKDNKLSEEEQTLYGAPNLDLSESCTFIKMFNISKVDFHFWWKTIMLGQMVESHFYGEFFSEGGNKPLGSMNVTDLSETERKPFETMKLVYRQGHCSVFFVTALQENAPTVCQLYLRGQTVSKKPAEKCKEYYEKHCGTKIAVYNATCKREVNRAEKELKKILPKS
# Test: ELISA with immobilised rHa24-GST and histamine-HRP conjugate, OD […] nm
# Assay type: binding
# Settings: labelled compound (histamine-HRP); protein coated at 1.25-10 ug/ml, pH 9.6; 37 °C, 2 h; GST as control
structure (smiles),measurement,value
NCCc1c[nH]cn1 [histamine],"ELISA with immobilised rHa24-GST and histamine-HRP conjugate, OD 650 nm",The results showed that rHa24 has the ability to bind with histamine
